Results taken from ChEMBL document CHEMBL1128372, “Design and syntheses of potent and selective dipeptide inhibitors of Candida albicans myristoyl-CoA:protein N-myristoyltransferase” (J Med Chem, 1995).
Where a SMILES comes first, the peptide text is derived from it. [ ]: non-standard residue; d: D form. Aun = NCCCCCCCCCCC(=O)O

How the values were obtained:
[1] = biological target: Peptide N-myristoyltransferase (Candida albicans)
[2] = biological target: T1, Peptide N-myristoyltransferase (Homo sapiens, UniProt P30419+O60551); assay: Inhibitory activity against human N-Myristoyltransferase (NMT).; type: protein assay
T1 sequence (P30419 whole entry): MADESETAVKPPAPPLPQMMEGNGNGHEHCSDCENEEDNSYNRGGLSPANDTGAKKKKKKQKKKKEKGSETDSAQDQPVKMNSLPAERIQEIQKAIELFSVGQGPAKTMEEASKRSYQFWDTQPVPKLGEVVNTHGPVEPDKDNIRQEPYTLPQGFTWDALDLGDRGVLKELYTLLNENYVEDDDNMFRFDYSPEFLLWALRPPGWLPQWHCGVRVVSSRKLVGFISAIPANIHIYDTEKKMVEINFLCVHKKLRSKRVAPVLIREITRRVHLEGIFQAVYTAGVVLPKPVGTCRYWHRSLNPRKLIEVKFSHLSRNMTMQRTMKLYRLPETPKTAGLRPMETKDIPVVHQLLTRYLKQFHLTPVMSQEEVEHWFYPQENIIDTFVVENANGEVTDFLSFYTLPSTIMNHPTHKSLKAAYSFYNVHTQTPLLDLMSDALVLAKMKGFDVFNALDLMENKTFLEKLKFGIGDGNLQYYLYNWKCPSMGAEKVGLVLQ
T1 sequence (O60551 whole entry): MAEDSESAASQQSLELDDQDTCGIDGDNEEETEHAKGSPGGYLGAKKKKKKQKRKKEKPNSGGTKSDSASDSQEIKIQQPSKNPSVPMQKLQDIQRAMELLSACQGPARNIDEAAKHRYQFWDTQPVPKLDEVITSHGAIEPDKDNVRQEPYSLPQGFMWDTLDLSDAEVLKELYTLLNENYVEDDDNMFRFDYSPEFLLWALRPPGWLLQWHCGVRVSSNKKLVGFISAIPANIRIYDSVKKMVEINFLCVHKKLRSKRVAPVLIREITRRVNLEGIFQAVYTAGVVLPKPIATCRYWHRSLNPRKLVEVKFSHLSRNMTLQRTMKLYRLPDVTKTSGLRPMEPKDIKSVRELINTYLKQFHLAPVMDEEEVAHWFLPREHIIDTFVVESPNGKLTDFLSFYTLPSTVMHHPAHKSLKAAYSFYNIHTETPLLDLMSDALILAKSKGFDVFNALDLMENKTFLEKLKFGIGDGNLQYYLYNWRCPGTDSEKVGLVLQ

[3] = Selectivity is the ratio of the IC50 against human NMT to the IC50 against Candida albicans NMT.; type: functional
[4] = biological target: Peptide N-myristoyltransferase (Candida albicans); remark: listed apart in the source
[5] = biological target: T1, Peptide N-myristoyltransferase; assay: Apparent binding affinity against Human NMT.; type: protein assay

Row | SMILES | IC50 [1] [nM] | IC50 [2] [nM] | Selectivity [3] | Ki [4] [nM] | Ki [5] [nM]
1 | NCCCC[C@H](NC(=O)[C@H](CO)NC(=O)Cc1ccc(CCCCn2ccnc2)cc1)C(=O)NCCC1CCCCC1 | 420 | 16000 | 38 | 590 | 
2 | NCCCC[C@H](NC(=O)[C@H](CO)NC(=O)CCCCCCCCCCn1ccnc1)C(=O)NCCC1CCCCC1 | 1600 | 11400 | 7.1 | 760 | 4200
3 | CC(C)C[C@H](NC(=O)[C@H](CCCCN)NC(=O)[C@H](CO)NC(=O)CCCCCCCCCCN)C(N)=O (H-[Aun]SKL-NH2) | 1200 | 230 | 0.2 |  | 
4 | NCCCCCCCCCCC(=O)N[C@@H](CO)C(=O)N[C@@H](CCCCN)C(=O)NCCC1CCCCCCC1 | 300 | 1140 | 3.8 | 130 | 
5 | CC(C)CCNC(=O)[C@H](CCCCN)NC(=O)[C@H](CO)NC(=O)CCCCCCCCCCN | 780 | 420 | 0.5 |  | 
